# Test results as given in publication PMC9516332 (Frontiers in Oncology, 2022).
# Where two headings read alike, the source gives them in different places.
# Assays:
# [1] = test system: AP-1060 (ETV6-NTRK3); assay: Cell viability assay; settings: read-out: IC50 in cell proliferation assay
# [2] = test system: 134 cancer cell lines; assay: Cell viability assay (ATPlite, 72 hours), IC50 on cancer cell line panel
structure (smiles),measurement,setting,value
C[C@H]1Oc2cc(cnc2N)-c2c(nn(C)c2C#N)CN(C)C(=O)c2ccc(F)cc21 [lorlatinib],IC50,[1],10.7 µM
same,IC50,"[2]; HEC-6, read-out: IC50 in cell proliferation assay",> 31.6 µM
same,IC50,"[2]; Homo sapiens, 769-P, read-out: IC50 in cell proliferation assay",> 31.6 µM
same,IC50,"[2]; Homo sapiens, 786-0, read-out: IC50 in cell proliferation assay",> 31.6 µM
same,IC50,"[2]; Homo sapiens, A 172, read-out: IC50 in cell proliferation assay",> 31.6 µM
same,IC50,"[2]; Homo sapiens, A204, read-out: IC50 in cell proliferation assay",> 31.6 µM
same,IC50,"[2]; Homo sapiens, A498, read-out: IC50 in cell proliferation assay",> 31.6 µM
same,IC50,"[2]; Homo sapiens, A549, read-out: IC50 in cell proliferation assay",2.3 µM
same,IC50,"[2]; Homo sapiens, A704, read-out: IC50 in cell proliferation assay",> 31.6 µM
same,IC50,"[2]; Homo sapiens, A-375, read-out: IC50 in cell proliferation assay",18.8 µM
same,IC50,"[2]; Homo sapiens, A-427, read-out: IC50 in cell proliferation assay",27.4 µM
same,IC50,"[2]; Homo sapiens, ACHN, read-out: IC50 in cell proliferation assay",> 31.6 µM
same,IC50,"[2]; Homo sapiens, AN3-CA, read-out: IC50 in cell proliferation assay",> 31.6 µM
same,IC50,"[2]; Homo sapiens, ASPC1, read-out: IC50 in cell proliferation assay",28.2 µM
same,IC50,"[2]; Homo sapiens, AU565, read-out: IC50 in cell proliferation assay",> 31.6 µM
same,IC50,"[2]; Homo sapiens, BT-20, read-out: IC50 in cell proliferation assay",> 31.6 µM
same,IC50,"[2]; Homo sapiens, BT-474, read-out: IC50 in cell proliferation assay",> 31.6 µM
same,IC50,"[2]; Homo sapiens, BT-549, read-out: IC50 in cell proliferation assay",> 31.6 µM
same,IC50,"[2]; Homo sapiens, BXPC-3, read-out: IC50 in cell proliferation assay",0.049 µM
same,IC50,"[2]; Homo sapiens, C-33-A, read-out: IC50 in cell proliferation assay",> 31.6 µM
same,IC50,"[2]; Homo sapiens, CAL-27, read-out: IC50 in cell proliferation assay",> 31.6 µM
same,IC50,"[2]; Homo sapiens, CCF-STTG1, read-out: IC50 in cell proliferation assay",> 31.6 µM
same,IC50,"[2]; Homo sapiens, CCRF-CEM, read-out: IC50 in cell proliferation assay",> 31.6 µM
same,IC50,"[2]; Homo sapiens, COLO 205, read-out: IC50 in cell proliferation assay",11.9 µM
same,IC50,"[2]; Homo sapiens, COLO-829, read-out: IC50 in cell proliferation assay",> 31.6 µM
same,IC50,"[2]; Homo sapiens, DLD-1, read-out: IC50 in cell proliferation assay",> 31.6 µM
same,IC50,"[2]; Homo sapiens, DU-145, read-out: IC50 in cell proliferation assay",25.9 µM
same,IC50,"[2]; Homo sapiens, DU-4475, read-out: IC50 in cell proliferation assay",25.9 µM
same,IC50,"[2]; Homo sapiens, Daoy, read-out: IC50 in cell proliferation assay",> 31.6 µM
same,IC50,"[2]; Homo sapiens, DoTc2-4510, read-out: IC50 in cell proliferation assay",0.024 µM
same,IC50,"[2]; Homo sapiens, EOL1, read-out: IC50 in cell proliferation assay",9.05 µM
same,IC50,"[2]; Homo sapiens, FaDu, read-out: IC50 in cell proliferation assay",> 31.6 µM
same,IC50,"[2]; Homo sapiens, G-361, read-out: IC50 in cell proliferation assay",> 31.6 µM
same,IC50,"[2]; Homo sapiens, HCC827, read-out: IC50 in cell proliferation assay",17.1 µM
same,IC50,"[2]; Homo sapiens, HCC4006, read-out: IC50 in cell proliferation assay",17.8 µM
same,IC50,"[2]; Homo sapiens, HCT-15, read-out: IC50 in cell proliferation assay",> 31.6 µM
same,IC50,"[2]; Homo sapiens, HCT-116, read-out: IC50 in cell proliferation assay",23.8 µM
same,IC50,"[2]; Homo sapiens, HEC-1, read-out: IC50 in cell proliferation assay",9.24 µM
same,IC50,"[2]; Homo sapiens, HEC-1B, read-out: IC50 in cell proliferation assay",> 31.6 µM
same,IC50,"[2]; Homo sapiens, HL-60, read-out: IC50 in cell proliferation assay",28.1 µM
same,IC50,"[2]; Homo sapiens, HT, read-out: IC50 in cell proliferation assay",> 31.6 µM
same,IC50,"[2]; Homo sapiens, HT-1080, read-out: IC50 in cell proliferation assay",> 31.6 µM
same,IC50,"[2]; Homo sapiens, Hs746T, read-out: IC50 in cell proliferation assay",9.43 µM
same,IC50,"[2]; Homo sapiens, Hs-578T, read-out: IC50 in cell proliferation assay",> 31.6 µM
same,IC50,"[2]; Homo sapiens, HuTu80, read-out: IC50 in cell proliferation assay",7.5 µM
same,IC50,"[2]; Homo sapiens, J82, read-out: IC50 in cell proliferation assay",> 31.6 µM
same,IC50,"[2]; Homo sapiens, Jurkat E6.1, read-out: IC50 in cell proliferation assay",> 31.6 µM
same,IC50,"[2]; Homo sapiens, K562, read-out: IC50 in cell proliferation assay",9.61 µM
same,IC50,"[2]; Homo sapiens, KATO III, read-out: IC50 in cell proliferation assay",> 31.6 µM
same,IC50,"[2]; Homo sapiens, KG-1, read-out: IC50 in cell proliferation assay",9.21 µM
same,IC50,"[2]; Homo sapiens, KLE, read-out: IC50 in cell proliferation assay",> 31.6 µM
same,IC50,"[2]; Homo sapiens, KMS-11, read-out: IC50 in cell proliferation assay",17.7 µM
same,IC50,"[2]; Homo sapiens, KU812, read-out: IC50 in cell proliferation assay",> 31.6 µM
same,IC50,"[2]; Homo sapiens, Kasumi 1, read-out: IC50 in cell proliferation assay",> 31.6 µM
same,IC50,"[2]; Homo sapiens, LC-2-ad, read-out: IC50 in cell proliferation assay",20.4 µM
same,IC50,"[2]; Homo sapiens, LNCaP-Clone-FGC, read-out: IC50 in cell proliferation assay",> 31.6 µM
same,IC50,"[2]; Homo sapiens, LS174T, read-out: IC50 in cell proliferation assay",14.2 µM
same,IC50,"[2]; Homo sapiens, LS-411N, read-out: IC50 in cell proliferation assay",23.6 µM
same,IC50,"[2]; Homo sapiens, LoVo, read-out: IC50 in cell proliferation assay",> 31.6 µM
same,IC50,"[2]; Homo sapiens, MCF7, read-out: IC50 in cell proliferation assay",17 µM
same,IC50,"[2]; Homo sapiens, MDA-MB-231, read-out: IC50 in cell proliferation assay",> 31.6 µM
same,IC50,"[2]; Homo sapiens, MDA-MB-453, read-out: IC50 in cell proliferation assay",> 31.6 µM
same,IC50,"[2]; Homo sapiens, MDA-MB-468, read-out: IC50 in cell proliferation assay",> 31.6 µM
same,IC50,"[2]; Homo sapiens, MG-63, read-out: IC50 in cell proliferation assay",8.74 µM
same,IC50,"[2]; Homo sapiens, MIA PaCa-2, read-out: IC50 in cell proliferation assay",> 31.6 µM
same,IC50,"[2]; Homo sapiens, MKN-45, read-out: IC50 in cell proliferation assay",> 31.6 µM
same,IC50,"[2]; Homo sapiens, MOLM-13, read-out: IC50 in cell proliferation assay",21.1 µM
same,IC50,"[2]; Homo sapiens, MOLT-4, read-out: IC50 in cell proliferation assay",6.72 µM
same,IC50,"[2]; Homo sapiens, MV4-11, read-out: IC50 in cell proliferation assay",15.6 µM
same,IC50,"[2]; Homo sapiens, MeWo, read-out: IC50 in cell proliferation assay",> 31.6 µM
same,IC50,"[2]; Homo sapiens, NCCIT, read-out: IC50 in cell proliferation assay",> 31.6 µM
same,IC50,"[2]; Homo sapiens, NCI-H82, read-out: IC50 in cell proliferation assay",6.06 µM
same,IC50,"[2]; Homo sapiens, NCI-H460, read-out: IC50 in cell proliferation assay",18.4 µM
same,IC50,"[2]; Homo sapiens, NCI-H661, read-out: IC50 in cell proliferation assay",6.73 µM
same,IC50,"[2]; Homo sapiens, NCI-H716, read-out: IC50 in cell proliferation assay",9.52 µM
same,IC50,"[2]; Homo sapiens, NCI-H1650, read-out: IC50 in cell proliferation assay",23.9 µM
same,IC50,"[2]; Homo sapiens, NCI-H1975, read-out: IC50 in cell proliferation assay",9.89 µM
same,IC50,"[2]; Homo sapiens, NCI-H2228, read-out: IC50 in cell proliferation assay",0.000918 µM
same,IC50,"[2]; Homo sapiens, OVCAR-3, read-out: IC50 in cell proliferation assay",> 31.6 µM
same,IC50,"[2]; Homo sapiens, PFSK-1, read-out: IC50 in cell proliferation assay",7.69 µM
same,IC50,"[2]; Homo sapiens, RL95-2, read-out: IC50 in cell proliferation assay",0.035 µM
same,IC50,"[2]; Homo sapiens, RPMI-7951, read-out: IC50 in cell proliferation assay",0.818 µM
same,IC50,"[2]; Homo sapiens, RS4-11, read-out: IC50 in cell proliferation assay",11.2 µM
same,IC50,"[2]; Homo sapiens, Rec1, read-out: IC50 in cell proliferation assay",8.26 µM
same,IC50,"[2]; Homo sapiens, SHP77, read-out: IC50 in cell proliferation assay",> 31.6 µM
same,IC50,"[2]; Homo sapiens, SK-BR-3, read-out: IC50 in cell proliferation assay",> 31.6 µM
same,IC50,"[2]; Homo sapiens, SK-N-AS, read-out: IC50 in cell proliferation assay",> 31.6 µM
same,IC50,"[2]; Homo sapiens, SK-N-FI, read-out: IC50 in cell proliferation assay",21.5 µM
same,IC50,"[2]; Homo sapiens, SK-N-MC, read-out: IC50 in cell proliferation assay",6.17 µM
same,IC50,"[2]; Homo sapiens, SK-N-SH, read-out: IC50 in cell proliferation assay",5.69 µM
same,IC50,"[2]; Homo sapiens, SNU-5, read-out: IC50 in cell proliferation assay",> 31.6 µM
same,IC50,"[2]; Homo sapiens, SNU-16, read-out: IC50 in cell proliferation assay",31.5 µM
same,IC50,"[2]; Homo sapiens, SNU-C2B, read-out: IC50 in cell proliferation assay",> 31.6 µM
same,IC50,"[2]; Homo sapiens, SU-DHL-1, read-out: IC50 in cell proliferation assay",0.008 µM
same,IC50,"[2]; Homo sapiens, SU-DHL-6, read-out: IC50 in cell proliferation assay",24.1 µM
same,IC50,"[2]; Homo sapiens, SUP-T1, read-out: IC50 in cell proliferation assay",23.2 µM
same,IC50,"[2]; Homo sapiens, SW48, read-out: IC50 in cell proliferation assay",8.62 µM
same,IC50,"[2]; Homo sapiens, SW480, read-out: IC50 in cell proliferation assay",> 31.6 µM
same,IC50,"[2]; Homo sapiens, SW626, read-out: IC50 in cell proliferation assay",8.56 µM
same,IC50,"[2]; Homo sapiens, SW780, read-out: IC50 in cell proliferation assay",16 µM
same,IC50,"[2]; Homo sapiens, SW837, read-out: IC50 in cell proliferation assay",> 31.6 µM
same,IC50,"[2]; Homo sapiens, SW872, read-out: IC50 in cell proliferation assay",6.65 µM
same,IC50,"[2]; Homo sapiens, SW900, read-out: IC50 in cell proliferation assay",15.1 µM
same,IC50,"[2]; Homo sapiens, SW948, read-out: IC50 in cell proliferation assay",17 µM
same,IC50,"[2]; Homo sapiens, SW982, read-out: IC50 in cell proliferation assay",0.052 µM
same,IC50,"[2]; Homo sapiens, SW-620, read-out: IC50 in cell proliferation assay",17 µM
same,IC50,"[2]; Homo sapiens, T98G, read-out: IC50 in cell proliferation assay",11.4 µM
same,IC50,"[2]; Homo sapiens, TCC-SUP, read-out: IC50 in cell proliferation assay",> 31.6 µM
same,IC50,"[2]; Homo sapiens, THP-1, read-out: IC50 in cell proliferation assay",> 31.6 µM
same,IC50,"[2]; Homo sapiens, U2OS, read-out: IC50 in cell proliferation assay",8.64 µM
same,IC50,"[2]; Homo sapiens, U-87 MG, read-out: IC50 in cell proliferation assay",> 31.6 µM
same,IC50,"[2]; Homo sapiens, U-118-MG, read-out: IC50 in cell proliferation assay",> 31.6 µM
same,IC50,"[2]; Homo sapiens, UMUC3, read-out: IC50 in cell proliferation assay",> 31.6 µM
same,IC50,"[2]; Hs766T, read-out: IC50 in cell proliferation assay",> 31.6 µM
same,IC50,"[2]; L-82, read-out: IC50 in cell proliferation assay",0.00122 µM
same,IC50,"[2]; Rh30, read-out: IC50 in cell proliferation assay",9.22 µM
